Reference: ChEMBL document CHEMBL1144272, “Generation of a new class of hNK(2) receptor ligands using the 'fragment approach'” (Bioorg Med Chem Lett, 2005)

Biological target: T1, Substance-K receptor (Homo sapiens, UniProt P21452)
T1 sequence (P21452 whole entry): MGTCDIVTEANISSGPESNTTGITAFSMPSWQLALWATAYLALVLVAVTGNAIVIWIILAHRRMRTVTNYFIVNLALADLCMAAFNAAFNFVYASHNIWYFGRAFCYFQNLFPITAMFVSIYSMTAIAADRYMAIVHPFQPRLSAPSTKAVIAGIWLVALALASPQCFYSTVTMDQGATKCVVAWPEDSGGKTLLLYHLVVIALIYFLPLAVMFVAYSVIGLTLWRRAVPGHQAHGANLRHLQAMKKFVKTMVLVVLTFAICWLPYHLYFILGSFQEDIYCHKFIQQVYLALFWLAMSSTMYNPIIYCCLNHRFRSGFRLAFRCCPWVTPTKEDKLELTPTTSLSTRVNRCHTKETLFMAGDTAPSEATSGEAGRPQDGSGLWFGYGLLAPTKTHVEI
Assay: Binding affinity for human tachykinin receptor 2 was measured by using [125I]NKA as radio ligand

Ki [µM] | Compound
> 10 | O=C(NCCCN1CCOCC1)[C@@H](Cc1ccccc1)NC(=O)N1CCCC(O)(c2ccccc2)C1 (stereo not given in full)
3 | O=C(N[C@H](Cc1ccccc1)C(=O)NCCCN1CCOCC1)c1ccccc1-c1ccccc1

Continued, molecule first:

Compound | Ki [µM]
COc1cc(COc2ccc(NC(=O)N[C@H](Cc3ccccc3)C(=O)NCCCN3CCOCC3)cc2)cc(OC)c1 | > 1
CC(C)(Nc1ccccc1Oc1ccccc1)C(=O)N[C@H](Cc1ccccc1)C(=O)NCCCN1CCOCC1 | > 3
CC(C)c1cccc(OC(C)(C)C(=O)N[C@H](Cc2ccccc2)C(=O)NCCCN2CCOCC2)c1 | > 1
